Data on 21 compounds can be found in patent US8163793B2, “Proline derivatives” (Hoffman-La Roche Inc., priority 2009, dated 2012).

The target in assay [1] is Cathepsin S (UniProt P25774). The experiment in a line: Cathepsin enzyme inhibition assay (fluorogenic peptide substrate Z-Val-Val-Arg-AMC), Cathepsin S. Format: biochemical, human and mouse. The gist of the method: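 Human or mouse cathepsin S (1 nM) was run in 100 mM potassium phosphate pH 6.5 with 5 mM EDTA, 0.001% Triton X-100 and 5 mM DTT. The rise in AMC fluorescence from cleavage was measured, and IC50 values were calculated by standard methods and expressed in μM.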

In assay [2] the target is Cat L (UniProt P07711). Description: Cathepsin enzyme inhibition assay (fluorogenic peptide substrate Z-Val-Val-Arg-AMC), Cathepsin L. Format: biochemical, human and mouse. The method in brief:
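Cathepsin L at 1 nM was mixed with compound, then started with 20 μM Z-Val-Val-Arg-AMC in pH 6.5 potassium phosphate with EDTA, Triton X-100 and 5 mM DTT. AMC fluorescence (ex 360/em 465 nm) was followed over 20 min. IC50 is given in μM.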

Setting [3] is: enzyme 1 nM, substrate 20 μM, pH 6.5; read-out: CatS IC50.
The mark [4] stands for this setting: enzyme 1 nM, substrate 20 μM, pH 6.5; read-out: CatL IC50.

Like-named read-outs stand apart in the source and are kept apart here.

One may read the IC50 as the concentration at which inhibition is half-maximal. With `N#CC1(NC(=O)[C@@H]2C[C@@H](S(=O)(=O)c3ccc(OCC(F)(F)F)cc3Cl)CN2C(=O)C2(C#N)CC2)CC1` [Example 243, (2S,4R)-4-[2-Chloro-4-(2,2,2-trifluoro-ethoxy)-benzenesulfonyl]-1-(1-cyano-cyclopropanecarbonyl)-pyrrolidine-2-carboxylic acid (1-cyano-cyclopropyl)-amide], the values for the IC50 in assay [1] (setting [3]) and in assay [2] (setting [4]) were 0.455 nM and 12300 nM, respectively.

Regarding `N#CC1(NC(=O)[C@@H]2C[C@@H](S(=O)(=O)c3ccc(OCC(F)(F)F)cc3Cl)CN2C(=O)Cc2ccc(Cl)cc2)CC1` [Example 244, (2S,4R)-1-[2-(4-Chloro-phenyl)-acetyl]-4-[2-chloro-4-(2,2,2-trifluoro-ethoxy)-benzenesulfonyl]-pyrrolidine-2-carboxylic acid (1-cyano-cyclopropyl)-amide], the results for the IC50 in assay [1] (setting [3]) and in assay [2] (setting [4]) were 3.15 nM and 5900 nM, respectively.

For the compound `N#CC1(NC(=O)[C@@H]2C[C@@H](S(=O)(=O)c3ccc(-c4ccnc(Cl)c4)cc3C(F)(F)F)CN2C(=O)C2(C(F)(F)F)CC2)CC1` [Example 245, (2S,4R)-4-[4-(2-Chloro-pyridin-4-yl)-2-trifluoromethyl-benzenesulfonyl]-1-(1-trifluoromethyl-cyclopropanecarbonyl)-pyrrolidine-2-carboxylic acid (1-cyano-cyclopropyl)-amide], the IC50 in assay [1] (setting [3]) stood at 0.168 nM; in assay [2] (setting [4]) it was 39200 nM.

Turning to `N#CC1(NC(=O)[C@@H]2C[C@@H](S(=O)(=O)c3ccc(OCC(F)(F)F)cc3Cl)CN2C(=O)C2CC2c2ccccc2)CC1` (stereo partly drawn) [Example 246], the results for the half-inhibitory concentration (IC50) in assay [1] (setting [3]) and in assay [2] (setting [4]) were 0.245 nM and 185 nM, respectively.

In the case of `N#CC1(NC(=O)[C@@H]2C[C@@H](S(=O)(=O)c3ccc(OCC(F)(F)F)cc3Cl)CN2C(=O)C2CC2c2ccccc2)CC1` (stereo partly drawn) [Example 247], the IC50 was determined as 0.385 nM in assay [1] (setting [3]) and 3440 nM in assay [2] (setting [4]).

With `Cc1cc(-c2ccc(S(=O)(=O)[C@@H]3C[C@@H](C(=O)NC4(C#N)CC4)N(C(=O)C4(C(F)(F)F)CC4)C3)c(C(F)(F)F)c2)ccn1` [Example 248, (2S,4R)-4-[4-(2-Methyl-pyridin-4-yl)-2-trifluoromethyl-benzenesulfonyl]-1-(1-trifluoromethyl-cyclopropanecarbonyl)-pyrrolidine-2-carboxylic acid (1-cyano-cyclopropyl)-amide], the half-maximal inhibitory concentration (IC50) in assay [1] (read-out: CatS IC50; enzyme 1 nM, substrate 20 μM, pH 6.5) stood at 0.55 nM; in assay [2] (read-out: CatL IC50; enzyme 1 nM, substrate 20 μM, pH 6.5), 54700 nM.

For `Cn1cc(-c2ccc(S(=O)(=O)[C@@H]3C[C@@H](C(=O)NC4(C#N)CC4)N(C(=O)C4(C)CC4)C3)c(C(F)(F)F)c2)cn1` [Example 249, (2S,4R)-1-(1-Methyl-cyclopropanecarbonyl)-4-[4-(1-methyl-1H-pyrazol-4-yl)-2-trifluoromethyl-benzenesulfonyl]-pyrrolidine-2-carboxylic acid (1-cyano-cyclopropyl)-amide], the IC50 in assay [1] (setting [3]) is 0.255 nM; in assay [2] (setting [4]) it was 25800 nM.

Regarding `N#CC1(NC(=O)[C@@H]2C[C@@H](S(=O)(=O)c3ccc(OCC(F)(F)F)cc3Cl)CN2C(=O)C(F)(F)c2ccccc2)CC1` [Example 251, (2S,4R)-4-[2-Chloro-4-(2,2,2-trifluoro-ethoxy)-benzenesulfonyl]-1-(2,2-difluoro-2-phenyl-acetyl)-pyrrolidine-2-carboxylic acid (1-cyano-cyclopropyl)-amide], the figures for the IC50 in assay [1] (setting [3]) and in assay [2] (setting [4]) were 0.29 nM and 1250 nM, respectively.

As to `N#CC1(NC(=O)[C@@H]2C[C@@H](S(=O)(=O)c3ccc(OCC(F)(F)F)cc3Cl)CN2C(=O)Oc2ccc(Cl)cc2)CC1` [Example 252, (2S,4R)-4-[2-Chloro-4-(2,2,2-trifluoro-ethoxy)-benzenesulfonyl]-2-(1-cyano-cyclopropylcarbamoyl)-pyrrolidine-1-carboxylic acid 4-chloro-phenyl ester], the half-maximal inhibitory concentration (IC50) is 1.75 nM in assay [1] (setting [3]) and at least 25000 nM in assay [2] (setting [4]).

As to `Cc1cc(N2C[C@H](S(=O)(=O)c3ccccc3Cl)C[C@H]2C(=O)NC2(C#N)CC2)n(-c2ccc(C(F)(F)F)cc2)n1` [Example 253, (2S,4R)-4-(2-Chloro-benzenesulfonyl)-1-[5-methyl-2-(4-trifluoromethyl-phenyl)-2H-pyrazol-3-yl]-pyrrolidine-2-carboxylic acid (1-cyano-cyclopropyl)-amide], the IC50 in assay [1] (setting [3]) stood at 1.1 nM; in assay [2] (setting [4]), 1380 nM.

Take `Cc1cc(N2C[C@H](S(=O)(=O)c3ccccc3Cl)C[C@H]2C(=O)NC2(C#N)CC2)n(-c2ccnc(Cl)c2)n1` [Example 254, (2S,4R)-4-(2-Chloro-benzenesulfonyl)-1-[2-(2-chloro-pyridin-4-yl)-5-methyl-2H-pyrazol-3-yl]-pyrrolidine-2-carboxylic acid (1-cyano-cyclopropyl)-amide]: the figures for the concentration for half-maximal inhibition (IC50) in assay [1] (setting [3]) and in assay [2] (setting [4]) were 0.83 nM and 2260 nM, respectively.

In the case of `N#CC1(NC(=O)[C@@H]2C[C@@H](S(=O)(=O)c3ccc(C4CC4)cc3C(F)(F)F)CN2C(=O)C2(C(F)(F)F)CC2)CC1` [Example 256, (2S,4R)-4-(4-Cyclopropyl-2-trifluoromethyl-benzenesulfonyl)-1-(1-trifluoromethyl-cyclopropanecarbonyl)-pyrrolidine-2-carboxylic acid (1-cyano-cyclopropyl)-amide], the IC50 in assay [1] (setting [3]) was determined as 0.26 nM; in assay [2] (setting [4]) it was 45700 nM.

In the case of `Cc1cc(-c2ccc(S(=O)(=O)[C@@H]3C[C@@H](C(=O)NC4(C#N)CC4)N(C(=O)C4(C)CC4)C3)c(C(F)(F)F)c2)ccn1` [Example 257, (2S,4R)-1-(1-M ethyl-cyclopropanecarbonyl)-4-[4-(2-methyl-pyridin-4-yl)-2-trifluoromethyl-benzenesulfonyl]-pyrrolidine-2-carboxylic acid (1-cyano-cyclopropyl)-amide], the values for the IC50 in assay [1] (setting [3]) and in assay [2] (setting [4]) were 0.195 nM and 48200 nM, respectively.

For the compound `CC1(C(=O)N2C[C@H](S(=O)(=O)c3ccc(-c4ccnc(Cl)c4)cc3C(F)(F)F)C[C@H]2C(=O)NC2(C#N)CC2)CC1` [Example 258, (2S,4R)-4-[4-(2-Chloro-pyridin-4-yl)-2-trifluoromethyl-benzenesulfonyl]-1-(1-methyl-cyclopropanecarbonyl)-pyrrolidine-2-carboxylic acid (1-cyano-cyclopropyl)-amide], the values for the IC50 in assay [1] (setting [3]) and in assay [2] (setting [4]) were 0.19 nM and 58000 nM, respectively.

Regarding `CC1(C(=O)N2C[C@H](S(=O)(=O)c3ccc(-c4ccc(F)cc4F)cc3C(F)(F)F)C[C@H]2C(=O)NC2(C#N)CC2)CC1` [Example 259, (2S,4R)-4-(2′,4′-Difluoro-3-trifluoromethyl-biphenyl-4-sulfonyl)-1-(1-methyl-cyclopropanecarbonyl)-pyrrolidine-2-carboxylic acid (1-cyano-cyclopropyl)-amide], the IC50 in assay [1] (setting [3]) is 0.19 nM; in assay [2] (setting [4]), 79500 nM.

For the compound `CN1CCN(c2ccc(S(=O)(=O)[C@@H]3C[C@@H](C(=O)NC4(C#N)CC4)N(C(=O)C4(C(F)(F)F)CC4)C3)c(C(F)(F)F)c2)CC1` [Example 260, (2S,4R)-4-[4-(4-Methyl-piperazin-1-yl)-2-trifluoromethyl-benzenesulfonyl]-1-(1-trifluoromethyl-cyclopropanecarbonyl)-pyrrolidine-2-carboxylic acid (1-cyano-cyclopropyl)-amide], the results for the IC50 in assay [1] (setting [3]) and in assay [2] (setting [4]) were 0.245 nM and 16500 nM, respectively.

For the compound `Cc1cc(N2C[C@H](S(=O)(=O)c3ccccc3)C[C@H]2C(=O)NC2(C#N)CC2)n(-c2ccc(C(F)(F)F)cc2)n1` [Example 261, (2S,4R)-4-Benzenesulfonyl-1-[5-methyl-2-(4-trifluoromethyl-phenyl)-2H-pyrazol-3-yl]-pyrrolidine-2-carboxylic acid (1-cyano-cyclopropyl)-amide], the IC50 in assay [1] (setting [3]) was found to be 12 nM; in assay [2] (setting [4]), 27000 nM.

With `Cc1cc(N2C[C@H](S(=O)(=O)c3ccccc3)C[C@H]2C(=O)NC2(C#N)CC2)n(-c2ccnc(Cl)c2)n1` [Example 262, (2S,4R)-4-Benzenesulfonyl-1-[2-(2-chloro-pyridin-4-yl)-5-methyl-2H-pyrazol-3-yl]-pyrrolidine-2-carboxylic acid (1-cyano-cyclopropyl)-amide], the IC50 in assay [1] (setting [3]) was found to be 4.4 nM; in assay [2] (setting [4]), 28700 nM.

Regarding `CC(C)(C)OC(=O)N[C@H]1CC[C@H](CC(=O)N2C[C@H](S(=O)(=O)c3ccc(OCC(F)(F)F)cc3Cl)C[C@H]2C(=O)NC2(C#N)CC2)CC1` [Example 264, (4-{2-[(2S,4R)-4-[2-Chloro-4-(2,2,2-trifluoro-ethoxy)-benzenesulfonyl]-2-(1-cyano-cyclopropylcarbamoyl)-pyrrolidin-1-yl]-2-oxo-ethyl}-cyclohexyl)-carbamic Acid Tert-butyl ester], the 50% inhibitory concentration (IC50) is 0.495 nM in assay [1] (setting [3]) and 8380 nM in assay [2] (setting [4]).

Turning to `N#CC1(NC(=O)[C@@H]2C[C@@H](S(=O)(=O)c3ccc(OCC(F)(F)F)cc3Cl)CN2C(=O)C[C@H]2CC[C@H](N)CC2)CC1` [Example 265, (2S,4R)-1-[2-(4-Amino-cyclohexyl)-acetyl]-4-[2-chloro-4-(2,2,2-trifluoro-ethoxy)-benzenesulfonyl]-pyrrolidine-2-carboxylic acid (1-cyano-cyclopropyl)-amide], the results for the concentration for half-maximal inhibition (IC50) in assay [1] (setting [3]) and in assay [2] (setting [4]) were 1.35 nM and 2050 nM, respectively.

`Cc1cc(N2C[C@H](S(=O)(=O)c3ccc(F)cc3C(F)(F)F)C[C@H]2C(=O)NC2(C#N)CC2)n(-c2ccnc(Cl)c2)n1` [Example 266, (2S,4R)-1-[2-(2-Chloro-pyridin-4-yl)-5-methyl-2H-pyrazol-3-yl]-4-(4-fluoro-2-trifluoromethyl-benzenesulfonyl)-pyrrolidine-2-carboxylic acid (1-cyano-cyclopropyl)-amide]: the results for the IC50 in assay [1] (setting [3]) and in assay [2] (setting [4]) were 1.3 nM and 22100 nM, respectively.
